Data published in the NIST ThermoML archive (doi:10.1021/je200121f).
Where “and” joins values, the source holds several entries; their conditions need not be identical. Equal values may be shown once. ± gives the expanded uncertainty stated by the source.

How the values were obtained:
[1] = for surface tension liquid-gas: Ring tensiometer; for viscosity / speed of sound / mass density: 101 kPa, Liquid; for viscosity: Capillary tube (Ostwald / Ubbelohde) method; for speed of sound: Sing-around technique in a fixed-path interferometer; for mass density: Vibrating tube method
[2] = refractive index (Na D-line) (dimensionless); details: 101.33 kPa, Liquid, Standard Abbe refractometry
[3] = refractive index (Na D-line) (dimensionless); xn = mol fraction of the nth substance listed; details: 101 kPa, Liquid, Standard Abbe refractometry, x1 = 1
[4] = xn = mol fraction of the nth substance listed; details: x1 = 1; for surface tension liquid-gas: Ring tensiometer; for viscosity / speed of sound / mass density: 101 kPa, Liquid; for viscosity: Capillary tube (Ostwald / Ubbelohde) method; for speed of sound: Sing-around technique in a fixed-path interferometer; for mass density: Vibrating tube method

C[C@H](O)CN [(2S)-1-amino-2-propanol]
Details	mass density, [1] [kg/m3]	refractive index, [2]	speed of sound, [1] [m/s]	surface tension liquid-gas, [1] [mN/m]	viscosity, [1] [mPa·s]
293.15 K	960.8 ± 0.8	1.448 ± 0.0007	1560.8 ± 3.4	37.6 ± 0.6	31.67 ± 0.46
303.15 K	952.8 ± 0.8	1.4442 ± 0.0007	1528.3 ± 3.4	36.9 ± 0.6	17.71 ± 0.29
313.15 K	944.7 ± 0.8	1.4401 ± 0.0007	1495.7 ± 3.4	36.3 ± 0.6	10.65 ± 0.16
323.15 K	936.5 ± 0.8	1.436 ± 0.0007	1462.9 ± 3.4	35.9 ± 0.6	6.961 ± 0.11

CC(O)CNCC(C)O (stereo not given) [N-(2-hydroxypropyl)-2-hydroxy-1-propanamine]
323.15 K
Details	mass density [kg/m3]	refractive index	speed of sound [m/s]	surface tension liquid-gas [mN/m]	viscosity [mPa·s]
[1]	984.1 ± 0.9	–	1420.3 ± 3.4	34.5 ± 0.6	125.73 ± 3.3
[2]	–	1.4512 ± 0.0008	–	–	–

CN1CCCC1=O [N-methylpyrrolidone]
Details	mass density, [1] [kg/m3]	refractive index, [2]	speed of sound, [1] [m/s]	surface tension liquid-gas, [1]	viscosity, [1] [mPa·s]
293.15 K	1033.6 ± 0.5	1.4688 ± 0.0005	1567.9 ± 2.9	42.7 ± 0.6 mN/m	1.899 ± 0.018
303.15 K	1024.7 ± 0.5	1.4657 ± 0.0006	1529.7 ± 2.9	41.5 ± 0.6 mN/m and 41.3 ± 0.6 mN/m	1.592 ± 0.015
313.15 K	1015.7 ± 0.5	1.4621 ± 0.0006	1491.2 ± 2.9	40.8 ± 0.6 mN/m and 41 ± 0.6 mN/m	1.353 ± 0.013
323.15 K	1006.8 ± 0.5	1.4579 ± 0.0006	1454.6 ± 2.9	40 ± 0.6 mN/m and 39.8 ± 0.6 mN/m	1.17 ± 0.011

CN1CCCC1=O [N-methylpyrrolidone] + CC(O)CNCC(C)O
Details	mass density, [4] [kg/m3]	refractive index, [3]	speed of sound, [4] [m/s]	surface tension liquid-gas, [4] [mN/m]	viscosity, [4] [mPa·s]
293.15 K	1033.6 ± 0.5	1.4688 ± 0.0005	1567.9 ± 2.9	42.7 ± 0.6	1.899 ± 0.018
303.15 K	1024.7 ± 0.5	1.4657 ± 0.0006	1529.7 ± 2.9	41.3 ± 0.6	1.592 ± 0.015
313.15 K	1015.7 ± 0.5	1.4621 ± 0.0006	1491.2 ± 2.9	41 ± 0.6	1.353 ± 0.013
323.15 K	1006.8 ± 0.5	1.4579 ± 0.0006	1454.6 ± 2.9	39.8 ± 0.6	1.17 ± 0.011

CN1CCCC1=O [N-methylpyrrolidone] + C[C@H](O)CN
Details	mass density, [4] [kg/m3]	refractive index, [3]	speed of sound, [4] [m/s]	surface tension liquid-gas, [4] [mN/m]	viscosity, [4] [mPa·s]
293.15 K	1033.6 ± 0.5	1.4688 ± 0.0005	1567.9 ± 2.9	42.7 ± 0.6	1.899 ± 0.018
303.15 K	1024.7 ± 0.5	1.4657 ± 0.0006	1529.7 ± 2.9	41.5 ± 0.6	1.592 ± 0.015
313.15 K	1015.7 ± 0.5	1.4621 ± 0.0006	1491.2 ± 2.9	40.8 ± 0.6	1.353 ± 0.013
323.15 K	1006.8 ± 0.5	1.4579 ± 0.0006	1454.6 ± 2.9	40 ± 0.6	1.17 ± 0.011
